Assays:
Histone deacetylase 1 = Histone deacetylase 1 (Homo sapiens, UniProt Q13547); test: Inhibition of HDAC1 (unknown origin) assessed as release of 7-amino-4-methylcoumarin incubated in room temperature for 15 min measured by Spectra max microtitre plate reader
[1] = molecular target: T1, Protein deacetylase HDAC6 (Homo sapiens, UniProt Q9UBN7); test: Inhibition of HDAC6 (unknown origin) assessed as release of 7-amino-4-methylcoumarin incubated in room temperature for 15 min measured by Spectra max microtitre plate reader
T1 sequence (Q9UBN7 whole entry): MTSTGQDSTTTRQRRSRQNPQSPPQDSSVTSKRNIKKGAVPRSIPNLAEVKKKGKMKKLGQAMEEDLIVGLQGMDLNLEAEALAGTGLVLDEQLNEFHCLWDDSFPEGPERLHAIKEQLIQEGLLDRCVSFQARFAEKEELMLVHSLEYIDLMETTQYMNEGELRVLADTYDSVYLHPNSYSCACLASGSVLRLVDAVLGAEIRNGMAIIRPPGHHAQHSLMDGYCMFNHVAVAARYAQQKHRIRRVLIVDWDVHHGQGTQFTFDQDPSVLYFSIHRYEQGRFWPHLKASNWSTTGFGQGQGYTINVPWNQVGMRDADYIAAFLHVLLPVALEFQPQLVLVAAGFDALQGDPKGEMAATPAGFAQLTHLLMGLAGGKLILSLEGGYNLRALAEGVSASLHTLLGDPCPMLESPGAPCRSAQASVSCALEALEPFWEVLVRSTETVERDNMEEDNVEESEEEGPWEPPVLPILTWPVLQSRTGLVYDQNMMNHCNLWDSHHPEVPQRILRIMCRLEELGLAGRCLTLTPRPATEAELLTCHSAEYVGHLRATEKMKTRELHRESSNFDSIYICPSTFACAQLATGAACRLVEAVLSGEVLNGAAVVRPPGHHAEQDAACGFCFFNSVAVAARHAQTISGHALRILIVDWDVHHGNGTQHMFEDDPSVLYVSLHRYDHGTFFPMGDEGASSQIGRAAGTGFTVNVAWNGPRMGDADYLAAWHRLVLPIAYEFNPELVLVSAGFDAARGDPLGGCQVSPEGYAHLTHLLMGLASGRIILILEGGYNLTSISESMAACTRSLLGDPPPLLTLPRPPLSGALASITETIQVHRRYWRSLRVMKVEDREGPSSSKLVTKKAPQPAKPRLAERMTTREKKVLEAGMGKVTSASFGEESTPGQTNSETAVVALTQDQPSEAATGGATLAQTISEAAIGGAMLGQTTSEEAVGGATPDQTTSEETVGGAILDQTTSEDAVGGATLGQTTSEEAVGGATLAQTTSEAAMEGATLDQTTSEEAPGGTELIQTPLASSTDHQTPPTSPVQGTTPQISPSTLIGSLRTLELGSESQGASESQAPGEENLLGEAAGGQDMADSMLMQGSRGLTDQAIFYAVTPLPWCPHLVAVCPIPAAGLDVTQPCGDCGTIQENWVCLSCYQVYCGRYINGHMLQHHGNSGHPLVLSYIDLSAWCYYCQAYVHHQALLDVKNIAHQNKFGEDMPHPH

Adenosine receptor A2a = Adenosine receptor A2a (Homo sapiens, UniProt P29274); test: Displacement of [3H]SCH58261 from adenosine A2A receptor membrane (unknown origin) measured after 60 mins by scintillation counting analysis; type: cell membranes
Sequence of Adenosine receptor A2a (P29274 whole entry): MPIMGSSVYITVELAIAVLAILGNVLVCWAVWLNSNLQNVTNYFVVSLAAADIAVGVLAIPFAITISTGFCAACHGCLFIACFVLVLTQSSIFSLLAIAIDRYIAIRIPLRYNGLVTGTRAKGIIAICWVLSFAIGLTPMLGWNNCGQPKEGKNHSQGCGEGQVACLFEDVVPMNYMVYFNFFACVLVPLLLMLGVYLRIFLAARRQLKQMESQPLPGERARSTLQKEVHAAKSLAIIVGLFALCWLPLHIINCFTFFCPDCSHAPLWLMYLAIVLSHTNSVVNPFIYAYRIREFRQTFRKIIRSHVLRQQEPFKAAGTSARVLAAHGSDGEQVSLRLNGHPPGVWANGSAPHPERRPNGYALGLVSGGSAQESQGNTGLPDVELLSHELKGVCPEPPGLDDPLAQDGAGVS

MC-38 = test: Antiproliferative activity against mouse MC38 cells measured after 72 hrs by CCK8 assay; type: functional
CT26 = test: Antiproliferative activity against mouse CT26 cells measured after 72 hrs by CCK8 assay; type: functional

Sequence of Histone deacetylase 1 (Q13547 whole entry): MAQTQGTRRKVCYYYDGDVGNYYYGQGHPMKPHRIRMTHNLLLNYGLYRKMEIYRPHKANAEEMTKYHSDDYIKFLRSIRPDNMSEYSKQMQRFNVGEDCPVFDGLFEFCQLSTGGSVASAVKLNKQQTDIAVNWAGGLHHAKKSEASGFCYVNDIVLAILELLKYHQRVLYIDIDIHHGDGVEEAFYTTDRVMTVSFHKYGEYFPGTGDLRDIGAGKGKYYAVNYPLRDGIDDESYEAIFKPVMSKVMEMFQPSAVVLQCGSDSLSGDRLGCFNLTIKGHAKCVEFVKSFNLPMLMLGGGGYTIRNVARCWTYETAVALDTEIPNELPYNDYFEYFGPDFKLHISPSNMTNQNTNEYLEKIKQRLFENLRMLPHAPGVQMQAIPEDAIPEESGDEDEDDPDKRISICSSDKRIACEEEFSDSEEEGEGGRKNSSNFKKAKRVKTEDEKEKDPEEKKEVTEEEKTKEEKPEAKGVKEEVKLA

Row | SMILES | IC50 (Histone deacetylase 1) [nM] | IC50 [1] [nM] | Ki (Adenosine receptor A2a) [nM] | GI50 (MC-38; Mus musculus, MC-38) [nM] | GI50 (CT26; Mus musculus, CT26) [nM] | GI50 (MC-38) [nM] | GI50 (CT26) [nM]
1 | Nc1nc(NCCc2ccc(OCCCC(=O)NO)cc2)nc2nc(-c3ccco3)nn12 | 108 | 132 | 6 | – | – | – | –
2 | Nc1cc(F)ccc1NC(=O)c1ccc(CCNc2nc(N)n3nc(-c4ccco4)nc3n2)cc1 | 173 | > 10000 | 9.6 | 25900 | 44000 | – | –
3 | Nc1nc(NCc2ccc(OCCCCC(=O)NO)cc2)nc2nc(-c3ccco3)nn12 | 162 | 35 | 19.9 | – | – | – | –
4 | O=C(CCCCCCC(=O)Nc1ccccc1)NO [VORINOSTAT] | – | – | – | – | – | 2400 | 2700
5 | Nc1nc(NCc2ccc(C(=O)NO)cc2)nc2nc(-c3ccco3)nn12 | 21.5 | 3 | 84.8 | – | – | – | –
6 | Nc1cc(F)ccc1NC(=O)c1ccc(CCn2ncc3c2nc(N)n2nc(-c4ccco4)nc32)cc1 | 228 | – | 2.8 | 10800 | 11200 | – | –
7 | Nc1nc(NCCc2ccc(OCCCCC(=O)NO)cc2)nc2nc(-c3ccco3)nn12 | 102 | 37 | 5.8 | – | – | – | –
8 | Nc1ccccc1NC(=O)c1ccc(CCn2ccc3c2nc(N)n2nc(-c4ccco4)nc32)cc1 | 90 | – | 0.87 | > 100000 | > 100000 | – | –
9 | Nc1nc2c(cnn2CCc2ccc(OCCCCCC(=O)NO)cc2)c2nc(-c3ccco3)nn12 | 81 | 16 | 2 | – | – | – | –
10 | Nc1nc2c(cnn2CCCCC(=O)NO)c2nc(-c3ccco3)nn12 | 486 | 74 | 82.8 | – | – | – | –
11 | Nc1nc2c(cnn2CCCCCC(=O)NO)c2nc(-c3ccco3)nn12 | 27 | 15 | 77.8 | 14000 | 17800 | – | –
12 | Nc1ccccc1NC(=O)c1ccc(CNc2nccc(-c3cccnc3)n2)cc1 [MOCETINOSTAT] | – | – | – | 21000 | 1800 | – | –
13 | Nc1ccccc1NC(=O)c1ccc(CCCn2ncc3c2nc(N)n2nc(-c4ccco4)nc32)cc1 | 203 | – | 3.3 | > 100000 | > 100000 | – | –
14 | Nc1cc(F)ccc1NC(=O)c1ccc(CCCn2ncc3c2nc(N)n2nc(-c4ccco4)nc32)cc1 | 2680 | – | 10.1 | – | – | – | –
15 | Nc1nc(N2CCN(CCc3ccc(C(=O)NO)cc3)CC2)nc2nc(-c3ccco3)nn12 | 220 | 19 | 4.2 | > 100000 | > 100000 | – | –
16 | Nc1nc2c(cnn2CCc2ccc(C(=O)NO)cc2)c2nc(-c3ccco3)nn12 | 138 | 7.6 | 4.3 | 100000 | 100000 | – | –
17 | Nc1ccccc1NC(=O)c1ccc(CCNc2nc(N)n3nc(-c4ccco4)nc3n2)cc1 | 137 | > 10000 | 3.9 | 48200 | 59100 | – | –
18 | Nc1nc2c(cnn2CCN2Cc3ccc(C(=O)NO)cc3C2)c2nc(-c3ccco3)nn12 | > 10000 | – | 60.4 | – | – | – | –

Row | SMILES | IC50 (Histone deacetylase 1) [nM] | IC50 [1] [nM] | Ki (Adenosine receptor A2a) [nM] | GI50 (MC-38; Mus musculus, MC-38) [nM] | GI50 (CT26; Mus musculus, CT26) [nM] | GI50 (MC-38) [nM] | GI50 (CT26) [nM]
19 | Nc1nc(NCCCCCCC(=O)NO)nc2nc(-c3ccco3)nn12 | 7.7 | 10.6 | 21.2 | 35700 | 31600 | – | –
20 | Nc1nc(NCCCc2ccc(C(=O)NO)cc2)nc2nc(-c3ccco3)nn12 | 23.7 | 4.9 | 8.4 | > 100000 | > 100000 | – | –
21 | CN(CCc1ccc(C(=O)NO)cc1)c1nc(N)n2nc(-c3ccco3)nc2n1 | 159 | 17.4 | 4.4 | 69200 | 75100 | – | –
22 | Nc1nc(NCCOc2ccc(C(=O)NO)cc2)nc2nc(-c3ccco3)nn12 | 7.4 | 3.2 | 10.2 | > 100000 | > 100000 | – | –
23 | Nc1ccccc1NC(=O)c1ccc(CNc2nc(N)n3nc(-c4ccco4)nc3n2)cc1 | 65.7 | > 10000 | 34.8 | 14100 | 16500 | – | –
24 | Nc1nc(NCCc2ccc(NC(=O)CCCCCCC(=O)NO)cc2)nc2nc(-c3ccco3)nn12 | 11.5 | 5.9 | 11.3 | > 100000 | > 100000 | – | –
25 | Nc1ccccc1NC(=O)c1ccc(OCCNc2nc(N)n3nc(-c4ccco4)nc3n2)cc1 | 68.5 | > 10000 | 4.9 | 36900 | 32400 | – | –
26 | Nc1nc(NCc2ccc(/C=C/C(=O)NO)cc2)nc2nc(-c3ccco3)nn12 | 5 | 9 | 27 | 20700 | 17500 | – | –
27 | Nc1nc2c(cnn2CCCCCCC(=O)NO)c2nc(-c3ccco3)nn12 | 3.8 | 6.6 | 10.1 | 1400 | 1400 | – | –
28 | Nc1nc(NCCc2ccc(C(=O)NO)cc2)nc2nc(-c3ccco3)nn12 | 104 | 14.8 | 6.3 | > 100000 | > 100000 | – | –
29 | Nc1ccccc1NC(=O)c1ccc(Cn2ncc3c2nc(N)n2nc(-c4ccco4)nc32)cc1 | 53 | > 10000 | 86.9 | – | – | – | –
30 | CCN(CCc1ccc(C(=O)NO)cc1)c1nc(N)n2nc(-c3ccco3)nc2n1 | 175 | 22 | 2.4 | – | – | – | –
31 | Nc1nc2c(cnn2CCN2CCC(c3ccc(C(=O)NO)cc3)CC2)c2nc(-c3ccco3)nn12 | 84 | 32 | 3.7 | 16900 | 11900 | – | –
32 | Nc1nc2c(cnn2CCN2CCc3ccc(C(=O)NO)cc3C2)c2nc(-c3ccco3)nn12 | 399 | 80 | 5.6 | – | – | – | –
33 | Cc1ccc(-c2nc3c4cnn(CCc5ccc(C(=O)Nc6ccccc6N)cc5)c4nc(N)n3n2)o1 | 126 | – | 18.5 | > 100000 | > 100000 | – | –
34 | Nc1nc(NCCc2ccc(O)cc2)nc2nc(-c3ccco3)nn12 [ZM-241385] | > 10000 | > 1000 | – | – | – | – | –
35 | Nc1ccccc1NC(=O)c1ccc(OCCn2ncc3c2nc(N)n2nc(-c4ccco4)nc32)cc1 | 279 | – | 43.7 | 7100 | 8800 | – | –
